Results as given in US11696898B2, “Halogenated ether compounds and methods of inducing anesthesia” (The Regents of the University of California, priority 2014, dated 2023).
Entries after “also recorded” stand apart in the source; their conditions may differ. Read-outs that look alike come from different tables or passages of the source.

What was measured:
[1] = tested on: NMDA receptors; experiment: NMDA receptor modulation at a saturated aqueous phase concentration; type: cell-based
[2] = tested on: mice; experiment: General anesthesia in mice (MAC for loss of righting reflex); type: in vivo; conditions: inhaled, closed microcircuit
Procedure: In a method to measure the minimum alveolar concentration (MAC) for Loss Of Righting Reflex (MACLORR), for assessing the performance of a compound as a general anesthetic, mice were placed in a 3.5 cm diameter, 14.5 cm long acrylic cylinder connected on either end via unidirectional valves to a closed microcircuit containing a carbon dioxide absorbent vessel, latex balloon breathing bag, sampling port, and 100 mL glass syringe-driven piston. […] The procedures for measuring MACLORR and MAC, as well as general methods for measuring agent concentrations by gas chromatography, have been described in Deady J E, Koblin D D, Eger E I, 2nd, Heavner J E, D'Aoust B: Anesthetic potencies and the unitary theory of narcosis. Anesth Analg 1981; 60: 380-4; Brosnan R J, Thiesen R: Increased NMDA receptor inhibition at an increased Sevoflurane MAC. BMC Anesthesiol 2012; 12: 9; and Brosnan R J: GABA(A) receptor antagonism increases NMDA receptor inhibition by isoflurane at a minimum alveolar concentration. Vet Anaesth Analg 2011; 38: 231-9, the disclosures of which are incorporated by reference in their entireties.

Structure (SMILES)	modulation/inhibition of NMDA receptors ([1]; listed as 1-bromo-1,1,2-trifluoro-2-(trifluoromethoxy)-ethane)	general anesthesia in mice [2]	modulation/inhibition of NMDA receptors [1]
FC(OC(F)(F)F)C(F)(F)Br (stereo not drawn) [Ethane, 1-bromo-1,1,2-trifluoro-2-(trifluoromethoxy)-]	devoid of NMDA receptor effects; also recorded: does not modulate NMDA receptors	produced general anesthesia	
COC(F)(C(F)(F)F)C(F)(F)F [Propane, 1,1,1,2,3,3,3-heptafluoro-2-methoxy-]			inhibits NMDA receptors
